Test results as given in US10413505B1, “Pharmaceutical compositions and methods of using the same” (priority 2017, dated 2019).

Legend:
[1] = Example 3 plasma pharmacokinetics, normal hepatic function vs hepatic impairment; conditions: for AUC0→t (Geometric mean) / AUC0→t (Max) / AUC0→t (Mean) / AUC0→t (Median) / AUC0→t (Min) / AUC0→∞ (Geometric mean) / AUC0→∞ (Max) / AUC0→∞ (Mean) / AUC0→∞ (Median) / AUC0→∞ (Min) / Clast (Geometric mean) / Clast (Max) / Clast (Mean) / Clast (Median) / Clast (Min) / Cmax (Geometric mean) / Cmax (Max) / Cmax (Mean) / Cmax (Median) / Cmax (Min) / Tlast (Geometric mean) / Tlast (Max) / Tlast (Mean) / Tlast (Median) / Tlast (Min) / Tmax (Geometric mean) / Tmax (Max) / Tmax (Mean) / Tmax (Median) / Tmax (Min) / t1/2 (Geometric mean) / t1/2 (Max) / t1/2 (Mean) / t1/2 (Median) / t1/2 (Min): single intranasal 160 mg cocaine HCl, plasma
[2] = Example 2 urinary pharmacokinetics, normal renal function vs severe renal impairment; conditions: single intranasal 160 mg cocaine HCl; for 0 to 32 hour urinary recovery (geometric mean) / 0 to 32 hour urinary recovery (mean) / 0 to 32 hour urinary recovery (median): metabolites as cocaine equivalents
Experimental: For the urine analysis of cocaine, BE, and EME, individual urinary recoveries for each analyte were determined over each collection interval as the product of the urine concentration times the urine volume. The total recoveries were determined as the sum of the recoveries over all the intervals. Total urinary recoveries were also expressed as the percentage of the administered dose, after correction for the molecular weight of each analyte. The renal clearances of cocaine, BE, and EME were determined as the urinary recovery (in μg) divided by the plasma AUC over the same time interval (the longest period for which both plasma and urine measurements were available).
Urine was collected prior to dosing and from 0-2, 2-4, 4-8, 8-12, 12-24, and 24-32 hours after the beginning of dose application. […] Testing methods used were consistent with those used by inVentiv Health Clinical Lab, Inc., Miami, Fla., U.S.A. Urinary pharmacokinetic parameters included total urinary recovery (μg), urinary recovery as a percentage of dose, and CLr.

[3] = normal renal function, listed as Benzoylecgonine
[4] = severe renal impairment, listed as Benzoylecgonine

SMILES: CN1[C@H]2CC[C@@H]1[C@@H](C(=O)O)[C@@H](OC(=O)c1ccccc1)C2 [BE, benzoylecgonine]
- AUClast, times higher than normal subjects ([1]; Grade B hepatic impairment): approximately 2.4 times
- AUClast, percent increased vs normal ([1]; Grade C hepatic impairment): 12%
- AUC0→t (Geometric mean) ([1]; hepatic impairment): 1235 ng·h/mL
- AUC0→t (Max) ([1]; hepatic impairment): 3356 ng·h/mL
- AUC0→t (Mean) ([1]; hepatic impairment): 1402 ng·h/mL
- AUC0→t (Median) ([1]; hepatic impairment): 1190 ng·h/mL
- AUC0→t (Min) ([1]; hepatic impairment): 606 ng·h/mL
- AUC0→∞ (Geometric mean) ([1]; hepatic impairment): 1513 ng·h/mL
- AUC0→∞ (Max) ([1]; hepatic impairment): 3532 ng·h/mL
- AUC0→∞ (Mean) ([1]; hepatic impairment): 1724 ng·h/mL
- AUC0→∞ (Median) ([1]; hepatic impairment): 1448 ng·h/mL
- AUC0→∞ (Min) ([1]; hepatic impairment): 647 ng·h/mL
- Clast (Geometric mean) ([1]; hepatic impairment): 14.3 ng/mL
- Clast (Max) ([1]; hepatic impairment): 42.6 ng/mL
- Clast (Mean) ([1]; hepatic impairment): 17.6 ng/mL
- Clast (Median) ([1]; hepatic impairment): 16.6 ng/mL
- Clast (Min) ([1]; hepatic impairment): 3.33 ng/mL
- Cmax (Geometric mean) ([1]; hepatic impairment): 67.1 ng/mL
- Cmax (Max) ([1]; hepatic impairment): 248 ng/mL
- Cmax (Mean) ([1]; hepatic impairment): 81.2 ng/mL
- Cmax (Median) ([1]; hepatic impairment): 67.8 ng/mL
- Cmax (Min) ([1]; hepatic impairment): 27.4 ng/mL
- Tlast (Geometric mean) ([1]; hepatic impairment): 32.0 h
- Tlast (Max) ([1]; hepatic impairment): 32.0 h
- Tlast (Mean) ([1]; hepatic impairment): 32.0 h
- Tlast (Median) ([1]; hepatic impairment): 32.0 h
- Tlast (Min) ([1]; hepatic impairment): 1920 min
- Tmax (Geometric mean) ([1]; hepatic impairment): 6.95 h
- Tmax (Max) ([1]; hepatic impairment): 12.0 h
- Tmax (Mean) ([1]; hepatic impairment): 7.50 h
- Tmax (Median) ([1]; hepatic impairment): 7.00 h
- Tmax (Min) ([1]; hepatic impairment): 240 min
- t1/2 (Geometric mean) ([1]; hepatic impairment): 12.3 h
- t1/2 (Max) ([1]; hepatic impairment): 31.0 h
- t1/2 (Mean) ([1]; hepatic impairment): 14.0 h
- t1/2 (Median) ([1]; hepatic impairment): 12.1 h
- t1/2 (Min) ([1]; hepatic impairment): 399 min
- AUC0→t (Geometric mean) ([1]; normal hepatic function): 603 ng·h/mL
- AUC0→t (Max) ([1]; normal hepatic function): 2969 ng·h/mL
- AUC0→t (Mean) ([1]; normal hepatic function): 784 ng·h/mL
- AUC0→t (Median) ([1]; normal hepatic function): 523 ng·h/mL
- AUC0→t (Min) ([1]; normal hepatic function): 144 ng·h/mL
- AUC0→∞ (Geometric mean) ([1]; normal hepatic function): 667 ng·h/mL
- AUC0→∞ (Max) ([1]; normal hepatic function): 3446 ng·h/mL
- AUC0→∞ (Mean) ([1]; normal hepatic function): 869 ng·h/mL
- AUC0→∞ (Median) ([1]; normal hepatic function): 568 ng·h/mL
- AUC0→∞ (Min) ([1]; normal hepatic function): 182 ng·h/mL
- Clast (Geometric mean) ([1]; normal hepatic function): 4.33 ng/mL
- Clast (Max) ([1]; normal hepatic function): 31.6 ng/mL
- Clast (Mean) ([1]; normal hepatic function): 6.17 ng/mL
- Clast (Median) ([1]; normal hepatic function): 3.71 ng/mL
- Clast (Min) ([1]; normal hepatic function): 2.02 ng/mL
- Cmax (Geometric mean) ([1]; normal hepatic function): 43.7 ng/mL
- Cmax (Max) ([1]; normal hepatic function): 171 ng/mL
- Cmax (Mean) ([1]; normal hepatic function): 57.5 ng/mL
- Cmax (Median) ([1]; normal hepatic function): 35.5 ng/mL
- Cmax (Min) ([1]; normal hepatic function): 7.03 ng/mL
- Tlast (Geometric mean) ([1]; normal hepatic function): 32.0 h
- Tlast (Max) ([1]; normal hepatic function): 32.0 h
- Tlast (Mean) ([1]; normal hepatic function): 32.0 h
- Tlast (Median) ([1]; normal hepatic function): 32.0 h
- Tlast (Min) ([1]; normal hepatic function): 1920 min
- Tmax (Geometric mean) ([1]; normal hepatic function): 1.96 h
- Tmax (Max) ([1]; normal hepatic function): 8.00 h
- Tmax (Mean) ([1]; normal hepatic function): 2.38 h
- Tmax (Median) ([1]; normal hepatic function): 1.63 h
- Tmax (Min) ([1]; normal hepatic function): 60 min
- t1/2 (Geometric mean) ([1]; normal hepatic function): 9.00 h
- t1/2 (Max) ([1]; normal hepatic function): 13.1 h
- t1/2 (Mean) ([1]; normal hepatic function): 9.16 h
- t1/2 (Median) ([1]; normal hepatic function): 8.91 h
- t1/2 (Min) ([1]; normal hepatic function): 398 min
- 0-32 h Urinary Recovery (geometric mean) ([2]; normal renal function): 2106 µg
- 0-32 h Urinary Recovery (mean) ([2]; normal renal function): 2764 µg
- 0-32 h Urinary Recovery (median) ([2]; normal renal function): 1483 µg
- Renal Clearance, CLr (geometric mean) ([2]; normal renal function): 3.61 L/h
- Renal Clearance, CLr (mean) ([2]; normal renal function): 3.77 L/h
- Renal Clearance, CLr (median) ([2]; normal renal function): 4.01 L/h
- Renal Clearance, geometric mean ([2]; normal renal function): 60.14 mL/min
- Renal Clearance, mean ([2]; normal renal function): 62.78 mL/min
- Renal Clearance, median ([2]; normal renal function): 66.86 mL/min
- 0 to 32 hour urinary recovery (geometric mean) ([2]; normal renal function): 1.55 % of administered dose
- 0 to 32 hour urinary recovery (mean) ([2]; normal renal function): 2.03 % of administered dose
- 0 to 32 hour urinary recovery (median) ([2]; normal renal function): 1.089 % of administered dose
- 0 to 32 hour urinary recovery (geometric mean) [2, 3]: 1.546 % of administered dose
- 0 to 32 hour urinary recovery (mean) [2, 3]: 2.029 % of administered dose
- 0-32 h Urinary Recovery (geometric mean) ([2]; severe renal impairment): 3126 µg
- 0-32 h Urinary Recovery (mean) ([2]; severe renal impairment): 3738 µg
- 0-32 h Urinary Recovery (median) ([2]; severe renal impairment): 2709 µg
- Renal Clearance, CLr (geometric mean) ([2]; severe renal impairment): 0.854 L/h
- Renal Clearance, CLr (mean) ([2]; severe renal impairment): 0.919 L/h
- Renal Clearance, CLr (median) ([2]; severe renal impairment): 0.824 L/h
- Renal Clearance, geometric mean ([2]; severe renal impairment): 14.2 mL/min
- Renal Clearance, mean ([2]; severe renal impairment): 15.3 mL/min
- Renal Clearance, median ([2]; severe renal impairment): 13.7 mL/min
- 0 to 32 hour urinary recovery (geometric mean) ([2]; severe renal impairment): 2.29 % of administered dose
- 0 to 32 hour urinary recovery (mean) ([2]; severe renal impairment): 2.74 % of administered dose
- 0 to 32 hour urinary recovery (median) ([2]; severe renal impairment): 1.988 % of administered dose
- 0 to 32 hour urinary recovery (geometric mean) [2, 4]: 2.294 % of administered dose
- 0 to 32 hour urinary recovery (mean) [2, 4]: 2.744 % of administered dose
